Test results from patent publication US12139481B2, “Compositions comprising macrocycle derivatives incorporating bridged macrocycles and methods of producing and using same” (Southwestern Oklahoma State University, priority 2015, dated 2024).
Where two headings read alike, the source gives them in different places.

Experiments:
[1] = system: Plasmodium falciparum D6 clone (Sierra Leon, chloroquine-sensitive); assay: In vitro antimalarial assay, chloroquine-sensitive D6 clone; format: cell-based; conditions: for X more potent than chloroquine: molar IC50 ratio versus chloroquine
Procedure: (§1) The compounds were assayed for in vitro antimalarial activity against the W2 clone and D6 clone of the pathogenic Plasmodium falciparum. The strains of P. falciparum were obtained from the Division of Experimental Therapeutics, Walter Reed Army Institute of Research, Washington D.C. Strains of Sierra Leon D6 and Indochina W2 are chloroquine-sensitive and chloroquine-resistant, respectively. The parasite was grown in type A human RBCs and, two strains subcultured daily with fresh medium and blood cells. On the day of the assay, a suspension of infected blood cells (2% parasitemia and 2% hematocrit) was prepared using type A human red blood cells. Assays were performed by standard 96-well flat-bottomed microplate methods and done in duplicate at different concentrations. IC50 values were obtained from the dose curves. Artemisinin and chloroquine were included in each assay as the drug controls, and DMSO was used as vehicle control. The whole protocol was developed based on the published method of Makler. The cytotoxicity assays were also performed in parallel against the Vero cells, and the selectivity index was measured. A selectivity index of >9 was considered to indicate a lead for further development of antimalarial drug.

[2] = system: Plasmodium falciparum W2 clone (Indochina, chloroquine-resistant); assay: In vitro antimalarial assay, chloroquine-resistant W2 clone; format: cell-based; conditions: for X more potent than chloroquine: molar IC50 ratio versus chloroquine
Procedure: as §1

C. krusei ATCC 6258 = assay: Antifungal broth dilution assay against C. krusei (modified CLSI); format: cell-based, Candida krusei; conditions: for X more potent than Amphotericin B: C. krusei, ratio of molar IC50 to amphotericin B; for C. krusei IC50 / IC50: in vitro; for IC50: read-out: C. krusei IC50 (mol/L)
Procedure: (§2) General Experimental Procedures. All organisms were obtained from the American Type Culture Collection (Manassas, VA) and include the fungi Candida albicans ATCC 90028, C. glabrata ATCC 90030, C. krusei ATCC 6258, and Cryptococcus neoformans ATCC 90113, and the bacteria Staphylococcus aureus ATCC 29213 and methicillin-resistant S. aureus ATCC 33591 (MRS). All organisms were tested using modified versions of the CLSI (formerly NCCLS) methods. For all organisms, optical density was used to monitor growth (NCCLS, Reference Method for Broth Dilution Antifungal Susceptibility Testing of Yeasts; Approved Standard M27-A2. National Committee on Clinical Laboratory Standards, 2002 22 (15); and NCCLS, Methods for Dilution Antimicrobial Susceptibility Tests for Bacteria that Grow Aerobically; Approved Standard, Seventh Edition M7-A7. National Committee on Clinical Laboratory Standards, 2006. 26(2)).
(§3) Samples (dissolved in DMSO) were serially-diluted in 20% DMSO/saline and transferred (10 μL) in duplicate to 96 well flat bottom microplates. Inocula were prepared by correcting the OD630 of microbe suspensions in incubation broth [RPMI 1640/0.2% dextrose/0.03% glutamine/MOPS @ pH 6.0 (Cellgro) for Candida spp., Sabouraud Dextrose for C. neoformans, and cation-adjusted Mueller-Hinton (Difco) @ pH 7.3 for Staphylococcus spp. to afford an assay volume of […] and final target inocula of: Candida spp. and C. neoformans: 1.5×10^3, and Staphylococcus spp.: 5.0×10^5 CFU/ml. Final sample test concentrations were 1/100th the DMSO stock concentration. […] All organisms were read at either 530 nm using the Biotek Powerwave XS plate reader (Bio-Tek Instruments, Vermont) prior to and after incubation: Candida spp. at 35° C. for 46-50 h, Staphylococcus spp. at 35° C. for 16-20 h, and C. neoformans at 35° C. for 70-74 h. IC50s (concentrations that afford 50% inhibition relative to controls) were calculated using XLfit 4.2 software (IDBS, Alameda, CA) using fit model 201. The MIC is defined as the lowest test concentration that allows no detectable growth. Minimum fungicidal or bactericidal concentrations were determined by removing 5 μl from each clear (or blue) well, transferring to fresh media, and incubating as previously mentioned. The MFC/MBC is defined as the lowest test concentration that kills the organism (allows no growth).
(§4) Primary Analysis. Samples were tested in duplicate at one test concentration (50 μg/mL), and percent inhibitions were calculated relative to blank and growth controls. Samples showing 50% inhibition in at least one test organism were selected for dose response (Secondary) studies.
(§5) Secondary Analysis. Extracts from the Primary Assay, and first-run pure compounds and column fractions were tested in duplicate at 3 test concentrations (5-fold dilutions). Samples dissolved to 20 mg/mL in DMSO were tested at 200, 40, and 8 μg/mL. Samples dissolved to 2 mg/mL in DMSO were tested at 20, 4, and 0.8 μg/mL.

[3] = system: Cryptococcus neoformans ATCC 90113; assay: Antimicrobial microdilution assay against Cryptococcus neoformans (modified CLSI/NCCLS, optical density); format: cell-based; conditions: for X more potent than Amphotericin B: C. neoformans, ratio of molar IC50 to Amphotericin B; for C. neoformans IC50 / IC50: in vitro, C. neoformans ATCC 90113; for IC50: read-out: C. neoformans IC50 (mol/L)
How it was run: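 Fungicidal endpoint taken by subculturing 5 μL from each clear well onto agar, MFC being the lowest concentration with no regrowth. Duplicate wells of serially diluted compound (20% DMSO/saline) in RPMI pH 6.0, read at 630 nm pre- and post-incubation, under modified CLSI methods. IC50 means 50% growth inhibition against controls.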

[4] = system: L. donovani promastigotes; assay: Antileishmanial Alamar Blue assay on promastigotes; format: cell-based, Leishmania donovani; conditions: for X more potent than Pentamidine: L. donovani, ratio of molar IC50 to Pentamidine; for L. donovani IC50 / IC50: promastigotes, 48 hours, Alamar Blue; for IC50: read-out: L. donavani IC50
How it was run: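 Alamar Blue fluorescence (544/590 nm) quantified growth after 48 hours at 26° C of compound-treated promastigotes. Parasites were seeded at 5×10^5/mL in RPMI 1640 plus 10% FCS; drug range 50-3.1 μg/mL, and IC50 derived by plotting percent growth against test concentration.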

C. glabrata ATCC 90030 = assay: Antifungal broth dilution assay against C. glabrata (modified CLSI); format: cell-based, Candida glabrata
Procedure: as §2, §3, §4, §5

[5] = system: Staphylococcus aureus ATCC 29213; assay: Antibacterial broth dilution assay against S. aureus (modified CLSI); format: cell-based
Procedure: as §2, §3, §4, §5

[6] = D6 clone, converted with molecular weight, read-out: P. falciparum D6 IC50
[7] = W2 clone, converted with molecular weight, read-out: P. falciparum W2 IC50
[8] = in vitro, converted with molecular weight

Compound | P. falciparum D6 IC50 ([1]; D6 clone) | IC50 [1, 6] | X more potent than chloroquine ([1]; D6 clone) | P. falciparum W2 IC50 ([2]; W2 clone) | IC50 [2, 7] | X more potent than chloroquine ([2]; W2 clone) | X more potent than Amphotericin B [3] | C. neoformans IC50 [3] | IC50 [3] | X more potent than Pentamidine [4] | L. donovani IC50 [4] | IC50 [4] | other results
Clc1ccc2c(N3CCCNCCCNCCNCCC3)ccnc2c1 [K-JDD-0011-P36] | 0.0203 µg/mL | 54 nM | 0.68 | 0.5279 µg/mL | 1400 nM | 0.48 |  |  |  |  |  |  | 
CC(=O)[O-].CC(=O)[O-].F[P-](F)(F)(F)(F)F.F[P-](F)(F)(F)(F)F.O.[Ni+2].[Ni+2].c1cc(CN2CCNCCN3CCN(CC3)CC2)cc(CN2CCNCCN3CCN(CC3)CC2)c1 [OB35, [Ni2(m-SB-Cyclens)(OAc)2][PF6]2•H2O] |  |  |  |  |  |  | 0.31 | ≤ 0.800 µg/mL | 768 nM |  |  |  | X more potent than Amphotericin B (C. krusei ATCC 6258): 1.95; C. krusei IC50 (C. krusei ATCC 6258): 0.800 µg/mL; IC50 (C. krusei ATCC 6258): 768 nM
CN1CCN2CCN(CC1)CCN(Cc1nc3ccccc3n1Cc1ccc([N+](=O)[O-])cc1)CC2 [SJA230, CB-BINO2-cyclen] |  |  |  |  |  |  | 0.01 | 7.930 µg/mL | 16600 nM |  |  |  | X more potent than Amphotericin B (C. krusei ATCC 6258): 0.09; C. krusei IC50 (C. krusei ATCC 6258): 7.690 µg/mL; IC50 (C. krusei ATCC 6258): 16100 nM
CC(=O)[O-].CC(=O)[O-].F[P-](F)(F)(F)(F)F.F[P-](F)(F)(F)(F)F.O.O.[Cu+2].[Cu+2].c1cc(CN2CCNCCN3CCN(CC3)CC2)cc(CN2CCNCCN3CCN(CC3)CC2)c1 [OB34, [Cu2(m-SB-Cyclens)(OAc)2][PF6]2•2H2O] |  |  |  |  |  |  | 0.32 | ≤ 0.800 µg/mL | 748 nM |  |  |  | X more potent than Amphotericin B (C. krusei ATCC 6258): 0.28; C. krusei IC50 (C. krusei ATCC 6258): 5.780 µg/mL; IC50 (C. krusei ATCC 6258): 5400 nM
Clc1ccc2c(N3CCNCCN(c4ccnc5cc(Cl)ccc45)CCNCC3)ccnc2c1.[Cl-].[Cl-].[Mn+2] [K-PAA2-0004-P8] | 0.0750 µg/mL | 120 nM | 0.30 | 0.0875 µg/mL | 141 nM | 4.82 |  |  |  |  |  |  | 
CCN(CC)CCCC(C)Nc1ccnc2cc(Cl)ccc12 (stereo not shown) [CQ] |  |  | 1.00 |  |  | 1.00 |  |  |  |  |  |  | IC50 ([1]; Plasmodium falciparum, D6, read-out: P. falciparum D6 IC50 (mol/L)): 36.6 nM; IC50 ([1]; Plasmodium falciparum, D6, read-out: P. falciparum D6 IC50 (μg/mL)): 0.0117 µg/mL; IC50 ([2]; Plasmodium falciparum, W2, read-out: P. falciparum W2 IC50 (mol/L)): 678 nM; IC50 ([2]; Plasmodium falciparum, W2, read-out: P. falciparum W2 IC50 (μg/mL)): 0.217 µg/mL
p-CB-cyclens HCl salt [OB15B] | 0.5799 µg/mL | 1100 nM | 0.03 | 0.6558 µg/mL | 1240 nM | 0.54 | 0.34 | 0.610 µg/mL | 699 nM | 0.22 | 20.94 µg/mL | 24000 nM | 
CN1CCN(c2ccnc3cc(Cl)ccc23)CCN(C)CCN(c2ccnc3cc(Cl)ccc23)CC1 [K-PAA-0012-P28] | 0.1169 µg/mL | 223 nM | 0.16 | 0.1992 µg/mL | 380 nM | 1.78 |  |  |  |  |  |  | 
m-CB-homocyclens HCl salt [OB65B] | 0.2921 µg/mL | 295 nM | 0.12 | 0.3783 µg/mL | 382 nM | 1.78 | 1.47 | 0.160 µg/mL | 162 nM | 0.48 | 11.08 µg/mL | 11200 nM | 
CC(=O)[O-].F[P-](F)(F)(F)(F)F.O.[Ni+2].c1ccc(CN2CCCNCCN(Cc3ccccc3)CCCNCC2)cc1 [BME06, [Ni(Bn2Cyclam)(OAc)]PF6•H2O] | 0.7495 µg/mL | 1130 nM | 0.03 | 1.7132 µg/mL | 2590 nM | 0.26 | 0.01 | 17.990 µg/mL | 27200 nM | 0.13 | 26.25 µg/mL | 39700 nM | 
Clc1ccc2c(N3CCNCCN(c4ccnc5cc(Cl)ccc45)CCNCC3)ccnc2c1.O.O.[Fe+3].[O-][Cl+3]([O-])([O-])[O-].[O-][Cl+3]([O-])([O-])[O-].[O-][Cl+3]([O-])([O-])[O-] [K-PAA-0016-P36, Fe-complex-4,10-bis(7-chloroquinoline)cyclen)Cl2] | 0.0196 µg/mL | 22.1 nM | 1.65 | 0.0336 µg/mL | 37.9 nM | 17.88 | 0.22 | 0.940 µg/mL | 1060 nM |  |  |  | times more potent than chloroquine ([2]; chloroquine-resistant P. falciparum (W2 strain)): ~18
p-CB-homocyclens HCl salt [TA22C] | 0.2596 µg/mL | 308 nM | 0.12 | 0.3189 µg/mL | 379 nM | 1.79 | 0.71 | 0.310 µg/mL | 334 nM | 0.30 | 16.31 µg/mL | 17600 nM | 
CC(=O)[O-].F[P-](F)(F)(F)(F)F.[Co+2].c1ccc(CN2CCN3CCCN(CC2)CCN(Cc2ccccc2)CC3)cc1 [AW038, [Co(Bn2PBCyclen)(C2H3O2)]PF6] |  |  |  |  |  |  | 0.04 | 4.370 µg/mL | 6670 nM | 0.17 | 20.66 µg/mL | 31500 nM | C. glabrata IC50 (C. glabrata ATCC 90030; in vitro): 5.800 µg/mL; IC50 (C. glabrata ATCC 90030; [8]): 8850 nM; X more potent than Amphotericin B (C. glabrata ATCC 90030; molar IC50 ratio versus amphotericin B): 0.16; S. aureus IC50 ([5]; in vitro): 5.080 µg/mL; IC50 [5, 8]: 7750 nM; X more potent than ciprofloxacen ([5]; molar IC50 ratio versus ciprofloxacen): 0.04
